In PubChem BioAssay AID686982:

Legend:
[1] = kinase inhibitors blocking P. berghei liver stage, confirmation, cell-based, HepG2, luciferase, host viability, known kinase inhibitors (AID 686982); settings: P. berghei liver stage in HepG2, luciferase, 48 h; measured here: HepG2 viability, % of control; at 10 µM; stronger effect = lower value
[2] = system: P. berghei liver stage in HepG2, luciferase, 48 h; assay: as above; settings: at 10 µM; stronger effect = lower value

SMILES | viability [1] | parasite load, % of control [2]
COc1cc[nH]c1C=C1C(=O)Nc2ccc(F)c(C#CC3(O)CCOCC3)c21 | 111% | 1.05%
Fc1ccc(-c2c(-c3ccncc3)[nH]c3cccnc23)cc1 | 163% | 1.19%
Cc1ccc2c(-c3ccnc(Nc4ccccc4)n3)c(-c3ccc(F)cc3)nn2n1 | 206% | 1.15%
